Results: patent US20240245658A1, “TAAR1 AND SEROTONIN MODULATORS, AND PHARMACEUTICAL COMPOSITIONS, AND METHODS OF USE THEREOF” (Sunovion Pharmaceuticals Inc., priority 2021, published 2024)
Read-outs that look alike come from different tables or passages of the source.

How the values were obtained:
Format in all cases: cell-based
human TAAR1 receptors = target: T1, human TAAR1 receptors (Homo sapiens, UniProt Q96RJ0); test: TAAR1 Agonism Assay: cAMP HTRF assay for Gs coupled receptor TAAR1 (Euroscreen FAST-0987C); details: CHO-K1 cells expressing human TAAR1, cAMP HTRF
T1 construct: host or cells: CHO-K1
T1 sequence (Q96RJ0 1-339): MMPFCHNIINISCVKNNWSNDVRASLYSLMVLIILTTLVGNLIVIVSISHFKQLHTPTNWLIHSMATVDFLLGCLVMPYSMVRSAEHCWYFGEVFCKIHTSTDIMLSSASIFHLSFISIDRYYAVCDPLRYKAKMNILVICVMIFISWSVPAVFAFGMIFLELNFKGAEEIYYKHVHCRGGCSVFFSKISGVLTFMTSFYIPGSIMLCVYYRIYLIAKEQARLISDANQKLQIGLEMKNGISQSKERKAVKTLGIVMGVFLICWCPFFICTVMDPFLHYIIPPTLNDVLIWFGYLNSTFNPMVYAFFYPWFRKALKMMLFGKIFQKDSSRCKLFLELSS
Summary of the method: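 cAMP accumulation detected by HTRF fluorescence ratio, reagents added in lysis buffer and incubated 1 h at about room temperature. Beforehand, cells (about 3,000 per well) sat with test compound at ten concentrations from 0.3 to 10,000 nM in duplicate for roughly 30 min at about room temperature; tyramine dose-response run alongside.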

human 5-HT2A receptor = target: T2, human 5-HT2A receptor (Homo sapiens, UniProt P28223); test: 5HT2A Antagonism Assay (Euroscreen FAST-05051), IP-One HTRF
T2 construct: host or cells: CHO-K1
Summary of the method: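 CHO-K1 cells expressing receptor, 20,000/well, co-incubated with test compound and reference agonist at its EC80 for 60 min at 37 °C. IP1 accumulation read by HTRF after ~1 h detection at room temperature. Compounds tested in duplicate at 0.3–10,000 nM.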

human 5-HT7 receptor = target: T3, human 5-HT7 receptor (Homo sapiens, UniProt P34969); test: 5HT7 Antagonism Assay (Euroscreen FAST-0499C), cAMP HTRF; details: CHO-K1 cells expressing human 5-HT7, reference agonist at EC80, cAMP HTRF
T3 construct: host or cells: CHO-K1
Summary of the method: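 CHO-K1 cells expressing human 5-HT7, 3000 per well in Krebs-Ringer HEPES with 1 mM IBMX, were exposed for 30 minutes at room temperature to compound plus reference agonist at its EC80. cAMP was read by HTRF after 1 hour; compounds were tested in duplicate from 0.3 to 10,000 nM.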

[1] = 5-HT2A (IC50), CHO-K1 cells expressing human 5-HT2A, reference agonist at EC80, IP-One
[2] = read-out: 5-HT2A (IC50), CHO-K1 cells expressing human 5-HT2A, reference agonist at EC80, IP-One

T2 sequence (P28223 whole entry): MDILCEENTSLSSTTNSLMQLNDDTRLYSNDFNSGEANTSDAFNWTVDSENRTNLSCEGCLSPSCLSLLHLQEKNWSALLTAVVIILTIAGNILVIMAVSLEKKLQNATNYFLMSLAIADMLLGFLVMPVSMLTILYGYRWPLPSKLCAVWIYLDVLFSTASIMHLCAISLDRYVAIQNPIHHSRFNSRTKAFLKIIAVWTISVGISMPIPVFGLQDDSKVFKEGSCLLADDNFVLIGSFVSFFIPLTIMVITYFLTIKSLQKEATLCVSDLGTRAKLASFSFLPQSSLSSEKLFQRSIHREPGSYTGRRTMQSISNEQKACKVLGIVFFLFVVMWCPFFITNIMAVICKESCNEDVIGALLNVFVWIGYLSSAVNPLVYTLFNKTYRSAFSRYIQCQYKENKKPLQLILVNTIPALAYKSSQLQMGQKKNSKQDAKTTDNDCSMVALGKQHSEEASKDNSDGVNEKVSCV
T3 sequence (P34969 whole entry): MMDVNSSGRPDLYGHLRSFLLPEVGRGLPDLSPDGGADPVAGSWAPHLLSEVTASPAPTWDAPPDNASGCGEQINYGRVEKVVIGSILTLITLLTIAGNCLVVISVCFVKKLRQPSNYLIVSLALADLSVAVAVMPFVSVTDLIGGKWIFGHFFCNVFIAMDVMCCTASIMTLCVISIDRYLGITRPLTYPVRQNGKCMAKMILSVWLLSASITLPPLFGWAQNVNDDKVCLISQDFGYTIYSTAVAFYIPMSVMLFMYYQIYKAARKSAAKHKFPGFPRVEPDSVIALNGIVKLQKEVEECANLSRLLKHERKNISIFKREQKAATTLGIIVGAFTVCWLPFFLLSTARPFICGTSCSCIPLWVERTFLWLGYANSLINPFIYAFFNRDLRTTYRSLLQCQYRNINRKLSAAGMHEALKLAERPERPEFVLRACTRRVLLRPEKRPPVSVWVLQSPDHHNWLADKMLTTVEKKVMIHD

With `CNCC1Cc2ccccc2Oc2cccc(F)c21` (single isomer, unassigned) [Compound 107, (S*)-(9-fluoro-10,11-dihydrodibenzo[b,f]oxepin-10-yl)-N-methylmethanamine] the EC50 (human TAAR1 receptors) was > 10000 nM, the IC50 (human 5-HT2A receptor; [1]) was 1000 to 10000 nM and the IC50 (human 5-HT7 receptor) was ≥ 10000 nM.

For `CCNCC1Cc2ccccc2Oc2cccnc21` (single isomer, unassigned) [Compound 109, (R*)-1-(10,11-dihydrobenzo-[6,7]oxepino[3,2-b]pyridin-11-yl)-N-ethylmethanamine], the EC50 (human TAAR1 receptors) was < 1000 nM, the IC50 (human 5-HT2A receptor; [1]) was 1000 to 10000 nM and the IC50 (human 5-HT7 receptor) was ≥ 10000 nM.

With `CN(C)CC1Cc2ccccc2Oc2cccnc21` (single isomer, unassigned) [Compound 111, (R*)-1-(10,11-dihydro-benzo[6,7]oxepino[3,2-b]pyridin-11-yl)-N,N-dimethylmethanamine] the EC50 (human TAAR1 receptors) was < 1000 nM, the IC50 (human 5-HT2A receptor; [1]) was 1000 to 10000 nM and the IC50 (human 5-HT7 receptor) was ≥ 10000 nM.

`NCC1Cc2cc(Cl)ccc2Oc2cccnc21` (single isomer, unassigned) [Compound 120, (S*)-(8-chloro-10,11-dihydrobenzo[6,7]oxepino[3,2-b]pyridin-11-yl)methanamine] was tested, and the EC50 (human TAAR1 receptors) was < 1000 nM, the IC50 (human 5-HT2A receptor; [1]) was 1000 to 10000 nM and the IC50 (human 5-HT7 receptor) was ≥ 10000 nM.

In the case of `NCC1Cc2cc(Cl)ccc2Oc2cccnc21` (single isomer, unassigned) [Compound 121, (R*)-(8-chloro-10,11-dihydrobenzo[6,7]oxepino[3,2-b]pyridin-11-yl)methanamine], the EC50 (human TAAR1 receptors) is reported as < 1000 nM, the IC50 (human 5-HT2A receptor; [1]) is reported as < 1000 nM and the IC50 (human 5-HT7 receptor) is reported as < 1000 nM.

With `CNCC1Cc2cc(Cl)ccc2Oc2cccnc21` (single isomer, unassigned) [Compound 122, (S*)-(8-chloro-10,11-dihydrobenzo[6,7]oxepino[3,2-b]pyridin-11-yl)-N-methylmethanamine] the EC50 (human TAAR1 receptors) was < 1000 nM, the IC50 (human 5-HT2A receptor; [1]) was < 1000 nM and the IC50 (human 5-HT7 receptor) was 1000 to 10000 nM.

For `CNCC1Cc2cc(Cl)ccc2Oc2cccnc21` (single isomer, unassigned) [Compound 123, (R*)-(8-chloro-10,11-dihydrobenzo[6,7]oxepino[3,2-b]pyridin-11-yl)-N-methylmethanamine], the EC50 (human TAAR1 receptors) was < 1000 nM, the IC50 (human 5-HT2A receptor; [2]) was < 1000 nM and the IC50 (human 5-HT7 receptor) was < 1000 nM.

For `NCC1Cc2ccc(Cl)cc2Oc2cccnc21` (single isomer, unassigned) [Compound 124, (S*)-(7-chloro-10,11-dihydrobenzo[6,7]oxepino[3,2-b]pyridin-11-yl)methanamine], the EC50 (human TAAR1 receptors) was < 1000 nM, the IC50 (human 5-HT2A receptor; [1]) was 1000 to 10000 nM and the IC50 (human 5-HT7 receptor) was ≥ 10000 nM.

With `NCC1Cc2ccc(Cl)cc2Oc2cccnc21` (single isomer, unassigned) [Compound 125, (R*)-(7-chloro-10,11-dihydrobenzo[6,7]oxepino[3,2-b]pyridin-11-yl)methanamine] the EC50 (human TAAR1 receptors) was < 1000 nM, the IC50 (human 5-HT2A receptor; [1]) was > 10000 nM and the IC50 (human 5-HT7 receptor) was ≥ 10000 nM.

`CNCC1Cc2ccc(Cl)cc2Oc2cccnc21` (single isomer, unassigned) [Compound 126, (S*)-(7-chloro-10,11-dihydrobenzo[6,7]oxepino[3,2-b]pyridin-11-yl)-N-methylmethanamine] was tested, and the EC50 (human TAAR1 receptors) was < 1000 nM, the IC50 (human 5-HT2A receptor; [1]) was < 1000 nM and the IC50 (human 5-HT7 receptor) was ≥ 10000 nM.

For `CNCC1Cc2ccc(Cl)cc2Oc2cccnc21` (single isomer, unassigned) [Compound 127, (R*)-(7-chloro-10,11-dihydrobenzo[6,7]oxepino[3,2-b]pyridin-11-yl)-N-methylmethanamine], the EC50 (human TAAR1 receptors) was < 1000 nM, the IC50 (human 5-HT2A receptor; [2]) was < 1000 nM and the IC50 (human 5-HT7 receptor) was 1000 to 10000 nM.

With `Cc1ccc2c(c1)CC(CN)c1ncccc1O2` (single isomer, unassigned) [Compound 128, (S*)-(8-methyl-10,11-dihydrobenzo[6,7]oxepino[3,2-b]pyridin-11-yl)methanamine] the EC50 (human TAAR1 receptors) was < 1000 nM, the IC50 (human 5-HT2A receptor; [1]) was 1000 to 10000 nM and the IC50 (human 5-HT7 receptor) was 1000 to 10000 nM.

For `Cc1ccc2c(c1)CC(CN)c1ncccc1O2` (single isomer, unassigned) [Compound 129, (R*)-(8-methyl-10,11-dihydrobenzo[6,7]oxepino[3,2-b]pyridin-11-yl)methanamine], the EC50 (human TAAR1 receptors) was < 1000 nM, the IC50 (human 5-HT2A receptor; [1]) was < 1000 nM and the IC50 (human 5-HT7 receptor) was < 1000 nM.
